Data: patent publication US9983218B2, “Indole and indoline derivatives and methods of use thereof” (AbbVie Inc., priority 2008, dated 2018)
Entries after “also recorded” stand apart in the source; their conditions may differ.

Key:
PC12 cells = assay: Number of neuron-like cells in nerve growth factor-differentiated PC12 cells (HCS microscopy); assay type: cell-based; settings: NGF-differentiated PC12 cells, 24 hours post-treatment, normalized to 10 μM dimebolin; FIG. 1
Method: For example, studies were conducted using PC12 cells plated in 96-well plates, treated with or without nerve growth factor (100 ng/mL) for 6 days. Compounds were then added at various concentrations (ranging from 0.1 nM to 30 μM), and incubated for 24 hours. Cells were then fixed and stained by neuron marker β-tubulin (green), and nuclei were stained by Hoechst 33342 (blue). Images were collected using the ImageXpress Micro automatic fluorescent microscopy system (Molecular Devices, Sunnyvale, Calif.) employing a Nikon 10× Plan Fluor objective and Cool Snap HQ CCD camera. The Neurite Outgrowth module in the MetaMorph Imaging software was used to automatically count neuron-like number, and the extent of neurite outgrowth (See, FIG. 1).

[1] = system: primary rat cortical neurons; settings: comparable to that evoked by BDNF; cited from earlier work
[2] = system: Patients with mild-to-moderate Alzheimer's disease; settings: cited from earlier work
[3] = system: mouse model of multiple sclerosis; settings: in vivo administration; cited from earlier work
[4] = system: primary postnatal (P0) cortical cells; assay: Neurite outgrowth assay (Aβ1-42-induced reduction of neurite outgrowth, high content microscopy); assay type: cell-based, rat; settings: for Emax: Rattus norvegicus, maximum response relative to 300 nM dimebolin, at the concentration given, read-out: Maximum Effect (of % 300 nM Dimebolin)
Method: In addition to PC12 cells, other cellular model systems may also be used. Rat cortical cells were cultured and prepared for high content microscopy analysis as previously described (Hu, M.; Schurdak, M. E.; et al. High content screen microscopy analysis of Aβ1-42-induced neurite outgrowth reduction in rat primary cortical neurons: Neuroprotective effects of α7 neuronal nicotinic acetylcholine receptor ligands. Brain Res. 2007, 1151, 227-235.). Briefly, cortical cell cultures were plated at density of 5×10^5 cells/mL onto poly-D-lysine coated 96-well plates and maintained in a cell incubator at 37° C. with 5% CO2. Experiments were performed using 6-7 day-old cortical cell cultures by treating with test compounds. In some experiments, the effect of test compounds on reversing Aβ toxicity were also measured (Hu, M.; Schurdak, M. E.; et al. High content screen microscopy analysis of Aβ1-42-induced neurite outgrowth reduction in rat primary cortical neurons: Neuroprotective effects of α7 neuronal nicotinic acetylcholine receptor ligands. Brain Res. 2007, 1151, 227-235.). For assessment of neuroprotective effects, cells were first pretreated with test compounds for about 5 hours. Medium was then replaced with the medium containing freshly prepared about 5 μM Aβ1-42 peptide in the absence or presence of the test compounds for 3 days. The untreated group contained the same percentage of vehicle (DMSO) as in the treatment groups. Cells were fixed with approximately 4% paraformaldehyde containing 0.5% Hoechst 33342 for about 15 minutes, followed by three washes using PBS (pH 7.4) and blocked with 10% donkey serum in PBS for 1 hour at room temperature. The cells were then incubated overnight at about 4° C. with mouse anti-tubulin monoclonal antibody (1:100) for staining neurons and rabbit anti-GFAP (1:1000) for staining glia. In the next day, cells were incubated with FITC-labeled anti-mouse and TRITC-labeled anti-rabbit antibodies (1:1000) for about 1 hour at room temperature. After fixing and staining the cells, nuclei (360/400 nm excitation and 465/300 nm emission filters), neuron (475/350 nm excitation and 535/400 nm emission filters) and glial cell (535 nm excitation and 610 nm emission filters) images were collected using the ImageExpress Micro automatic fluorescent microscopy system (Molecular Devices, Sunnyvale, Calif.) employing a Nikon 10× Plan Fluor objective and Cool Snap HQ CCD camera. The Neurite Outgrowth module in the MetaMorph Imaging software was used to automatically count total cell number, number of neuron cells, and the extent of neurite outgrowth.
In the graph of FIG. 2, 100% response was the response observed for untreated cells. Exposure to Aβ1-42 produced a decrease in neurite outgrowth. Treatment of cells with compounds prior to and concomitantly with Aβ1-42 gave a neuroprotective effect with neurite outgrowth maintained or enhanced relative to untreated cells.

[5] = system: SK-N-SH human neuroblastoma cells; assay: Serum deprivation/JC-1 mitochondrial membrane potential (MMP) assay; assay type: cell-based
Outline: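 Cells were serum-deprived ~18 h in MEM with or without compound (DMSO ≤1%), then stained with JC-1 for 35 min at 37° C. The red/green fluorescence ratio (560/595 vs 485/535 nm) was normalized to the peak response of 10 μM dimebolin. EC50 came from one curve fit to mean data (n=2-3, duplicates).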

mice = assay: Inhibitory avoidance in mouse; assay type: in vivo; settings: 24-hour recall, significant at 0.11 mg/kg and 1.1 mg/kg, FIG. 4
Method: Inhibitory Avoidance in Mouse: The inhibitory avoidance task involves the uses of a two-compartment step through apparatus (Ugo Basile, Collegeville, Pa.) that measures the animal's ability to remember a brief noxious stimulus (foot shock), and is considered a measure of trial learning, and memory consolidation. Briefly, mice were placed in a lighted compartment of the apparatus where the latency to enter into the preferred dark compartment is recorded. […] Retention testing was conducted 24 hours later with the animal again placed in the lighted compartment where its latency to reenter the dark side of the apparatus was measured (no shock). Increasing retention latency was regarded as an index of memory consolidation (Bitner, R. S.; Bunnelle, W. H.; et al. Broad-spectrum efficacy across cognitive domains by α7 nicotinic acetylcholine receptor agonism correlates with activation of ERK1/2 and CREB phosphorylation pathways. J. Neurosci. 2007, 27(39), 10578-10587.).

Male Sprague Dawley rats = assay: Analgesic effect against neuropathic pain (L5/L6 spinal nerve ligation, von Frey filaments); assay type: in vivo; settings: rat
Method: Animals were prepared for testing, by use of a surgical procedure that induces neuropathic pain in one paw. Male Sprague Dawley rats were purchased from Charles River (Portage, Mich.). Prior to surgery, animals were housed in groups and maintained in a temperature-regulated environment. Following nerve ligation surgery, animals were housed in groups, and had access to food and water ad libitum.
The L5 and L6 spinal nerves of anesthetized rats were tightly ligated in a manner described previously (see Kim and Chung, Pain (1992) vol. 50 pp. 355-363). An incision was made on the dorsal portion of the hip and the muscle was blunt-dissected to reveal the spinal processes. The L6 transverse process was removed, and the left side L5 and L6 spinal nerves were tightly ligated with 5.0 braided silk suture. The wound was cleaned, the membrane sewn with 4.0 dissolvable Vicryl suture and the skin closed with wound clips. The paw affected by the surgical procedure (the left paw) develops an allodynic response, a hypersensitivity to mechanical and other stimuli; neuropathic pain is assessed as an increased sensitivity in the surgically affected (left) allodynic paw compared to the control paw on the right side, and measured by comparing the response of the (left side) allodynic paw to the response of the unaffected right side control paw.
For the assessment of neuropathic pain, mechanical allodynia in the affected paw of animals that had undergone spinal nerve ligation was evaluated using testing with von Frey filaments. As described previously by S. R. Chaplan, et al (“Quantitative assessment of tactile allodynia in the rat paw” J. Neurosci. Meth. (1994) vol. 53 pp. 55-63), two weeks following surgery rats were acclimated to a testing box constructed of plexiglass with a wire mesh floor which allowed access to the plantar surface of the animal's hindpaws. […] The efficacy of the compound in reducing neuropathic pain at different doses was determined by comparing response in the surgery-affected paw versus the response in the control paw. […]

## Cc1ccc2c(c1)c1c(n2CCc2ccc(C)nc2)CC2CCC1N2C (stereo not drawn) [Example 1, 2,11-dimethyl-5-[2-(6-methylpyridin-3-yl)ethyl]-5,6,7,8,9,10-hexahydro-7,10-epiminocyclohepta[b]indole]
PC12 cells
  number of neuron-like cells: concentration-dependent effects

## Cc1ccc2c(c1)c1c(n2CCc2ccc(C)nc2)CCN(C)C1 [dimebolin, 2,3,4,5-tetrahydro-2,8-dimethyl-5-[2-(6-methyl-3-pyridinyl)ethyl]-1H-pyrido[4,3-b]indole]
[1]
  neurite outgrowth: increase neurite outgrowth
[2]; 20 mg three times a day (60 mg/day)
  clinical course of disease (improvement over baseline for ADAS-Cog): significant improvement
[2]; clinical studies of dimebolin
  most frequent adverse event: dry mouth

## O=C1C=C(c2ccccc2)C(=O)N1c1cccc(Cl)c1 [1-(3-chlorophenyl)-3-phenyl-pyrrole-2,5-dione]
[3]
  development of the disease: significantly prevented the development of the disease

## Cc1ccc2c(c1)c1c(n2CCc2ccc(C)nc2)C[C@@H]2CC[C@H]1N2 (single isomer, unassigned) [Example 5]
[4]
  Emax: 123%
[4]; pretreatment about 5 hours, then about 5 μM Aβ1-42 with test compound for 3 days, FIG. 2
  Aβ1-42-induced reduction of neurite outgrowth: significant attenuation; also recorded: neurite outgrowth levels similar to or enhanced relative to untreated control cells
[5]; Homo sapiens, SK-N-SH, percent maximal intensity in JC-1 ratio normalized to 10 μM dimebolin, read-out: JC-1 max %
  Emax: 209%
[5]; Homo sapiens, SK-N-SH cells, serum deprivation ~18 hours, JC-1 ratio normalized to peak value for 10 μM dimebolin, single curve fit to mean data of n=2-3, read-out: EC50
  EC50: 13 µM
[5]; SK-N-SH cells, relative to 10 μM dimebolin (100% response), FIG. 3
  maintenance of mitochondrial function (JC-1 ratio) under cellular stress: maintained mitochondrial function in a dose dependent manner; also recorded: concentration-dependent enhancement of mitochondrial function maintenance
mice
  latency to reenter the dark side (punishment side): significantly increased; also recorded: concentration-dependent improvement

## Cc1ccc2c(c1)c1c(n2CCc2ccc(C)nc2)C2CCN(CC2)C1 [Example 2, 9-methyl-6-[2-(6-methylpyridin-3-yl)ethyl]-3,4,5,6-tetrahydro-1H-2,5-ethanoazepino[4,3-b]indole]
[4]
  Emax: 117%
Male Sprague Dawley rats; 10 mg/kg intraperitoneal injection, 30 minutes before testing, **p<0.01, ***p<0.001 vs. vehicle, FIG. 6
  reduction in mechanical allodynia: 58%
Male Sprague Dawley rats; i.p. 1, 3, and 10 mg/kg
  adverse effects: No complicating adverse effects were observed
Male Sprague Dawley rats; intraperitoneally 30 minutes before testing, maximum effect 15 g
  withdrawal threshold for allodynic limb (pressure applied to elicit a pain response): concentration-dependent improvement
